{"source": "patent US5278148A", "about": "(Hoffmann-La Roche Inc., priority 1989, dated 1994)", "data": [{"target": "T1, human renin (Homo sapiens, UniProt P00797)", "T1 sequence (P00797 67-406)": "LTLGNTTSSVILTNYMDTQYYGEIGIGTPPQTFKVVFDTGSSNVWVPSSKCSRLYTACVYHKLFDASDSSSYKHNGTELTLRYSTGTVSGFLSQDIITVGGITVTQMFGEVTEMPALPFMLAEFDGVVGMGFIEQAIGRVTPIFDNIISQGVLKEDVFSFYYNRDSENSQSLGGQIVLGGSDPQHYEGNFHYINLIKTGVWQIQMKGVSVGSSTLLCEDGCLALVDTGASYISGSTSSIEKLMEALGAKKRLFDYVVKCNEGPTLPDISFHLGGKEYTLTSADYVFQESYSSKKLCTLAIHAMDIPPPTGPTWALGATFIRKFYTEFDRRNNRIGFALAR", "experiment": "In vitro test with pure human renin", "type": "biochemical", "details": "human tetradecapeptide renin substrate (hTD), pH 7.4, incubated three hours at 37° C. or 4° C., angiotensin I via RIA", "experimental": "In Vitro Test with Pure Human Renin\nThe test is carried out in Eppendorf test tubes. The incubation mixture consists of (1) 100 μl of human renin in buffer A (0.1M sodium phosphate solution, pH 7.4, 0.1% bovine serum albumin, 0.1% sodium azide and 1 mM ethylenediaminetetraacetic acid), sufficient for a renin activity of 2-3 ng of angiotensin I/ml/hr.; (2) 145 μl of buffer A; (3) 30 μl of 10 μm human tetradecapeptide renin substrate (hTD) in 10 mM hydrochloric acid; (4) 15 μl of dimethyl sulfoxide with or without inhibitor and (5) 10 μl of a 0.03 molar solution of hydroxy- quinoline sulfate in water.\nThe samples are incubated for three hours at 37° C. or 4° C. in triplicate. 2×100 μl samples per experimental test tube are used in order to measure the production of angiotensin I via RIA (standard radioimmunoassay; clinincal assay solid phase kit). Cross reactivities of the antibody used in the RIA are: angiotensin I 100%; angiotensin II 0.0013%; hTD (angiotensin I-Val-Ile-His-Ser-OH) 0.09%. The production of angiotensin I is determined by the difference between the experiment at 37° C. and that at 4° C.\nThe following controls are carried out:\n(a) Incubation of hTD samples without renin and without inhibitor at 37° C. and 4° C. The difference between these two values gives the base value of angiotensin I production.\n(b) Incubation of hTD samples with renin, but without inhibitor at 37° C. and 4° C. The difference between these values gives the maximal value of angiotensin I production.\nIn each sample the base value of angiotensin I production is substracted from the angiotensin I production which is determined. The difference between the maximal value and the base value gives the value of the maximal substrate hydrolysis (=100%) by renin.\nThe results are given as IC50 values which denote that concentration of the inhibitor at which the enzymatic activity is inhibited by 50%. The IC50 values are determined from a linear regression curve from a logit-log plot.", "units": {"IC50": "nM"}, "values": [{"molecule": "CN(C[C@H](O)[C@H](CC1CCCCC1)NC(=O)[C@H](Cc1c[nH]cn1)NC(=O)[C@H](Cc1ccccc1)NC(=O)OC(C)(C)C)C(=O)[C@H](Cc1c[nH]cn1)NC(=O)[C@H](Cc1ccccc1)NC(=O)OC(C)(C)C", "note": "[E]", "IC50": 30}, {"molecule": "CC(C)(C)C(=O)C[C@@H](Cc1ccccc1)C(=O)N[C@@H](Cc1c[nH]cn1)C(=O)N[C@@H](CC1CCCCC1)[C@@H](O)CN1CCCCC1=O", "note": "[A, (S)-N-[(1S,2S)-1-(Cyclohexylmethyl)-2-hydroxy-3-(2oxopiperidino)propyl]-α-[(R)-α-(3,3-dimethyl-2-oxobutyl)hydrocinnamamido]imidazole-4-propionamide]", "IC50": 41}, {"molecule": "(S)-N-[(1S,2S)-1-(Cyclohexylmethyl)-3-[(S)-α-[(R)-α-(3,3-dimethyl-2-oxobutyl)hydrocinnamamido]-N-isopropylimidazol-4-propionamido]-2-hydroxypropyl]-α-[(R)-α-(3,3-dimethyl-2-oxobutyl)hydrocinnamamido]imidazole-4-propionamide", "IC50": 41}, {"molecule": "CN(C[C@H](O)[C@H](CC1CCCCC1)NC(=O)[C@H](Cc1c[nH]cn1)NC(=O)[C@@H](CC(=O)C(C)(C)C)Cc1ccccc1)C(=O)[C@H](Cc1c[nH]cn1)NC(=O)CCc1ccccc1", "note": "[D, (S)-N-[(1S,2S)-1-(Cyclohexylmethyl)-2-hydroxy-3-[(S)-3-(imidazol-4-yl)-2-hydrocinnamamido-N-methylpropionamido]propyl]-α-[(R)-α-(3,3-dimethyl-2-oxobutyl)hydrocinnamamido]imidazole-4-propionamide]", "IC50": 19}, {"molecule": "CN(C[C@H](O)[C@H](CC1CCCCC1)NC(=O)[C@H](Cc1c[nH]cn1)NC(=O)[C@H](Cc1ccccc1)NC(=O)OC(C)(C)C)C(=O)[C@H](Cc1ccccc1)NC(=O)OC(C)(C)C", "note": "[F, t-Butyl [(S)-α-[[(2S,3S)-3-[(S)-2-[(S)-α-(1-t-butoxyformamido)hydrocinnamamido]-3-imidazol-4-ylpropionamido]-4-cyclohexyl-2-hydroxybutyl]methylcarbamoyl]phenethyl]carbamate]", "IC50": 15}, {"molecule": "CC(C)(C)C(=O)C[C@@H](Cc1ccccc1)C(=O)N[C@@H](Cc1c[nH]cn1)C(=O)N[C@@H](CC1CCCCC1)[C@@H](O)CN1C(=O)c2ccccc2C1=O", "note": "[G, (S)-N-[(1S,2S)-1-(Cyclohexylmethyl)-2-hydroxy-3-phthalimidopropyl]-α-[(R)-α-(3,3-dimethyl-2-oxobutyl)hydrocinnamamido]imidazole-4-propionamide]", "IC50": 20}, {"molecule": "CN(C[C@H](O)[C@H](CC1CCCCC1)NC(=O)[C@H](Cc1c[nH]cn1)NC(=O)[C@@H](CC(=O)C(C)(C)C)Cc1ccccc1)C(=O)[C@H](Cc1c[nH]cn1)NC(=O)[C@@H](CC(=O)C(C)(C)C)Cc1ccccc1", "note": "[C]", "IC50": 28}]}]}
